The values below come from US6906090B1, “Compositions and methods for treating mycobacterial diseases” (AstraZeneca AB, priority 1998, dated 2005).

This assay deals with M. tuberculosis. The assay is described as follows: BACTEC radiometric MIC test for bactericidal activity against M. tuberculosis. The format is cell-based. As to conditions: Mycobacterium tuberculosis, read-out: minimum inhibitory concentration (MIC).
On to `O=C1C(=O)N(CCC2CCN(Cc3ccccc3)CC2)c2ccc(C3CCCCC3)cc21` [Example 1, 5-Cyclohexyl-1-[2-[1-(phenylmethyl)-4-piperidinyl]ethyl]-1H-indole-2,3-dione], for which the MIC was at most 20 µg/mL.

Regarding `O=C1C(=O)N(CCN2CCN(Cc3ccccc3)CC2)c2c1cccc2C1CCCCCC1` [Example 2, 7-Cycloheptyl-1-[2-[4-(phenylmethyl)-1-piperazinyl]ethyl]-1H-indole-2,3-dione], the MIC was at most 20 µg/mL.

Turning to `CCN(CCCCCN1C(=O)C(=O)c2cc(C3CCCCC3)ccc21)Cc1ccccc1` [Example 3, 5-Cyclohexyl-1-(5-(N-ethyl-N-phenylmethylamino)pentyl)-1H-indole-2,3-dione], the MIC was at most 20 µg/mL.

As for `O=C1Cc2cc(C3CCCCC3)ccc2N1CCC1CCN(Cc2ccccc2)CC1` [Example 4, 5-Cyclohexyl-1,3-dihydro-1-[2-[1-(phenylmethyl) 4-piperidinyl]ethyl]-2H-2H-indol-2-one], the MIC was at most 20 µg/mL.

For `CCN(CCCCN1C(=O)C(=O)c2ccccc21)Cc1ccccc1` [Example 5, 1-(4-(N-Ethyl-N-phenylmethylamino)butyl)-1H-indole-2,3-dione], the MIC is at most 20 µg/mL.

Consider `O=C1C(=O)N(CCN2CCN(Cc3ccccc3)CC2)c2ccc(-c3ccccc3)cc21` [Example 6, 5-Phenyl-1-[2-[4-(phenylmethyl)-1-perazinyl]ethyl]-1H-indole-2,3-dione], for which the MIC was at most 20 µg/mL.

As for `O=C1C(=O)N(CCN2CCN(Cc3ccccc3)CC2)c2c1cccc2C1CCCC1` [Example 7, 7-Cyclopentyl-1-[2-[4-(phenylmethyl)-1-piperazinyl]ethyl]-1H-indole-2,3-dione], the MIC is at most 20 µg/mL.

Regarding `O=C1C(=O)N(CCN2CCN(Cc3ccccc3)CC2)c2ccc(N3CCCCC3)cc21` [Example 8, 5-(1-Piperidinyl)-1-[2-[4-(phenylmethyl)-1-piperazinyl]ethyl]-1H-indole-2,3-dione], the MIC is at most 20 µg/mL.

In the case of `O=C1C(=O)N(CCCCBr)c2ccc(C3CCCCC3)cc21` [Example 9, 1-(4-Bromobutyl)-5-cyclohexyl-1H-indole-2,3-dione], the MIC is at most 20 µg/mL.

For `CCCCCCCCCN1C(=O)C(=O)c2cccc(-c3ccccc3)c21` [Example 10, 1-Nonyl-7-phenyl-1H-indole-2,3-dione], the MIC is at most 20 µg/mL.

Turning to `CCCCCCCN1C(=O)C(=O)c2cccc(-c3ccccc3)c21` [Example 11, 1-Heptyl-7-phenyl-1H-indole-2,3-dione], the MIC is at most 20 µg/mL.

Turning to `CCCCCCCCN1C(=O)C(=O)c2cccc(-c3ccccc3)c21` [Example 12, 1-Octyl-7-phenyl-1-H-indole-2,3-dione], the MIC was at most 20 µg/mL.

For the compound `CCCCCCCCCCN1C(=O)C(=O)c2cccc(-c3ccccc3)c21` [Example 13, 1-Decyl-7-phenyl-1-H-indole-2,3-dione], the MIC was at most 20 µg/mL.

`CCCCCCCCCCCN1C(=O)C(=O)c2cccc(-c3ccccc3)c21` [Example 14, 1-Undececyl-7-phenyl-1-H-indole-2,3-dione]: the MIC was at most 20 µg/mL.

Take `CCCCCN1C(=O)C(=O)c2cccc(-c3ccccc3)c21` [Example 15, 1-Pentyl-7-phenyl-1H-indole-2,3-dione]: the MIC was at most 20 µg/mL.

In the case of `CCCCN1C(=O)C(=O)c2cccc(-c3ccccc3)c21` [Example 16, 1-Butyl-7-phenyl-1H-inidole-2,3-dione], the MIC is at most 20 µg/mL.

For `CC(C)CN1C(=O)C(=O)c2cccc(-c3ccccc3)c21` [Example 17, 1-(2-Methylpropyl)-7-phenyl-1H-indole-2,3-dione], the MIC was at most 20 µg/mL.

Consider `CCCCCCN1C(=O)C(=O)c2cccc(-c3ccccc3)c21` [Example 18, 1-Hexyl-7-phenyl-1-indole-2,3-dione], for which the MIC was at most 20 µg/mL.

In the case of `CCCCCCCCCCCCN1C(=O)C(=O)c2cccc(-c3ccccc3)c21` [Example 19, 1-Dodecyl-7-phenyl-1H-indole-2,3-dione], the MIC was at most 20 µg/mL.

On to `O=C1C(=O)N(CCCCBr)c2c1cccc2-c1ccccc1` [Example 20, 1-(4-Bromobutyl)-7-phenyl-1H-indole-2,3-dione], for which the MIC was at most 20 µg/mL.
